Literature values in US20070281995A1, “Creatine analog prodrugs, compositions and uses thereof” (XenoPort, Inc., priority 2006, published 2007).
Like-named read-outs stand apart in the source and are kept apart here.

How the values were obtained:
[1] = healthy volunteers, oral creatine administration
[2] = not given; remark: listed apart in the source
[3] = animals fed a diet containing up to 1%

CN(CC(=O)O)C(=N)NP(=O)(O)O [creatine phosphate]
adverse side effects (patients with cardiac diseases, intravenous injection up to 8 gm/day): without adverse side effects

CN(CC(=O)O)C(=N)N.O [creatine monohydrate]
adverse side effects (athletes and body builders, 2-3 gm/day): without adverse side effects

CN(CC(=O)O)C(=N)N [creatine, Creatine]
increase of cerebral creatine phosphate [1]: about 10% | overall increase in creatine phosphate levels ([2]; creatine supplementation, typically takes weeks): < 50% | duration of increases in tissue creatine phosphate levels ([2]; following oral creatine supplementation): > 14 days

NC1=NCCN1CC(=O)O [cyclocreatine]
adverse effects [3]: do not exhibit adverse effects
